Assay results: patent publication US7790766B2, “Pharmaceutical compositions of short-acting sedative hypnotic agent” (Theravance, Inc., priority 2003, dated 2010)

Assay: Solubility in aqueous media
Format: physicochemical

CCCOC(=O)Cc1ccc(OCC(=O)N(CC)CC)c(OCC)c1 [Compound 1, [4-[(N,N-diethylcarbamoyl)methoxy]-3-ethoxyphenyl]acetic acid propyl ester]
Solubility in aqueous media: poorly, if, at all soluble
